# Test results: patent US8361711B2, “Tools and methods useful in characterising the immunotoxic activity of xenobiotic substances” (National Institute of Public Health and the Environment, …, priority 2004, dated 2013)
# Where a name gives a salt, the structure may show the parent alone.
# Experiments:
# [1] = tested on: β-actin promoter dEGFP reporter, EL/pCA-dEGFP/9 (EL4); assay: Prototype cell chip, flow cytometry, control clone; assay type: cell-based
# Experimental: (§1) Samples were analyzed in an EPICS® XL-MCL Coulter flow cytometer with Expo v.2 Analysis Software/Expo32 Analysis Software (Applied Cytometry Systems, Sheffield, UK). or any other suitable flow cytometer. Viable and dead cells were gated separately and results were determined based on fluorescence associated with viable cells only. Regions were set in control cells and the same regions were used in induction controls and chemically challenged cells. Percent positive cells and fluorescence intensity were noted and used in further calculations.
# (§2) Index numbers were calculated from the median fluorescence intensity of viable cells. Cells incubated in the absence or presence of ionomycin/PMA were analysed separately. Each clone incubated with or without ionomycin/PMA, but without further chemicals/compounds was defined as index number=1, and the index numbers for the other exposures were calculated from this. Experiments with the same exposures were pooled to perform statistical analysis, using SigmaStat 2.03 statistical analysis software (SPSS Inc., Chicago, Ill. USA).
# (§3) One way ANOVAs (one way analysis of variance) were performed. In cases where normality failed, we used Kruskal-Wallis One Way Analysis of Variance on Ranks. If the differences between groups were statistically significant (p<0.05), we continued with tests for multiple comparisons. In normally distributed data we used Bonferroni t-test and multiple comparisons versus the control. The control was chosen to be the sample incubated in the presence or absence of ionomycin/PMA only. When normality failed we used […] for multiple comparisons versus the control.
# (§4) The following cell lines: EL/pCA-dEGFP/9, EL/p1-5′IL2-dEGFP/6, EL/p2-5′ IL4-dEGFP/2, EL/p1-5′IFNγ-dEGFP/3, and EL/p2-5′IL10-dEGFP/5, obtained by transfection with the DNA constructs containing promoter region derived from β-actin, IL2, IL4, INF-γ, and IL10 were employed to design the prototype cell chip. The prototype cell chip was used to test the activity of different substances.
# [2] = tested on: IL-2 promoter dEGFP reporter, EL/p1-5′IL2-dEGFP/6 (EL4); assay: Prototype cell chip, flow cytometry, IL-2 clone; assay type: cell-based, mouse
# Experimental: as §1, §2, §3, §4
# [3] = tested on: IL-4 promoter dEGFP reporter, EL/p2-5′IL4-dEGFP/2 (EL4); assay: Prototype cell chip, flow cytometry, IL-4 clone; assay type: cell-based, mouse
# Experimental: as §1, §2, §3, §4
# [4] = tested on: IL-10 promoter dEGFP reporter, EL/p2-5′IL10-dEGFP/5 (EL4); assay: Prototype cell chip, flow cytometry, IL-10 clone; assay type: cell-based
# Experimental: as §1, §2, §3, §4
# [5] = tested on: IFN-γ promoter dEGFP reporter, EL/p1-5′IFNγ-dEGFP/3 (EL4); assay: Prototype cell chip, flow cytometry, IFN-γ clone; assay type: cell-based, mouse
# Experimental: as §1, §2, §3, §4
# [6] = tested on: IL-2 fused to a stabile form of EGFP; assay: Clones with IL-2 regulatory elements fused to a stabile form of EGFP; assay type: cell-based, mouse
# Experimental: as §1
# (§5) Index numbers were calculated from the median fluorescence intensity of viable cells. Cells incubated in the absence or presence of ionomycin/PMA were analysed separately. Each clone incubated with or without ionomycin/PMA, but without further chemicals/compounds was defined as index number=1, and the index numbers for the other exposures were calculated from this.
# as §3
# [7] = tested on: IFN-γ fused to a stabile form of EGFP; assay: Clones with IFN-γ regulatory elements fused to a stabile form of EGFP; assay type: cell-based, mouse
# Experimental: as §1, §5, §3
# [8] = tested on: cell lines developed in the project; assay: Cytotoxicity (cell viability) testing, LDH release; conditions: for concentration which led to 10% cytotoxicity: highest concentration used on the cell chip
# Experimental: The basic cytotoxicty assay employed was LDH release. Several cytotoxicity assays were performed independently in two laboratories. […] In addition, the cytotoxicity associated with the solvent was also tested to eliminate the possibility of interference in the test outcome.
# Cells were plated in 24 well microtiter plates at a density of 0.5×10^6 cells/mL and with a final volume of 1.5 mL/well. Two controls were included for each cell line, in each experiment.
# [9] = tested on: J/p4-5′IL1β-dEGFP/4 reporter cell line; assay type: cell-based
# [10] = tested on: IL-1β promoter dEGFP reporter, J/p4-5′IL1β-dEGFP/4 cells; assay type: cell-based, mouse
# [11] = absence of ionomycin/PMA, highest concentration
# [12] = presence of ionomycin/PMA, highest concentration
# [13] = absence of ionomycin/PMA, all tested concentrations
# [14] = presence of ionomycin/PMA, all tested concentrations, 24 h
# [15] = presence of ionomycin/PMA, 1:10 dilution
# [16] = presence of ionomycin/PMA, 1:100 dilution
# [17] = absence of ionomycin/PMA, 1:10 dilution, 24 h
# [18] = absence of ionomycin/PMA, highest concentration, 24 h
# [19] = presence of ionomycin/PMA, 1:10 dilution, 24 h
# [20] = presence of ionomycin/PMA, highest concentration, 24 h
# [21] = presence of ionomycin/PMA, all tested concentrations
smiles,measurement,setting,value
"O=C1CCC(N2C(=O)c3ccccc3C2=O)C(=O)N1 (racemic) [thalidomide, (+/−)—Thalidomide]","actin clone, inhibition",[1]; [11],5-10%
same,actin clone fluorescence vs control,[1]; [12],inhibited
same,IL-2 clone fluorescence vs control,[2]; [13],did not show any significant changes
same,IL-2 clone fluorescence vs control,[2]; [14],only actin inhibited
same,IL-4 clone fluorescence vs control,[3]; [13],did not show any significant changes
same,IL-4 clone fluorescence vs control,[3]; [14],only actin inhibited
same,IL-10 clone fluorescence vs control,[4]; [13],did not show any significant changes
same,IL-10 clone fluorescence vs control,[4]; [14],only actin inhibited
same,IFN-γ clone fluorescence vs control,[5]; [13],did not show any significant changes
same,IFN-γ clone fluorescence vs control,[5]; [14],only actin inhibited
same,"IL-2 inhibition, stabile EGFP clone",[6]; [11],10%
same,"IL-2 expression, stabile EGFP clone",[6]; [15],did not show detectable effects
same,"IL-2 expression, stabile EGFP clone",[6]; [16],did not show detectable effects
same,"IL-2 expression, stabile EGFP clone",[6]; [12],dose-dependent inhibition
same,"IFN-γ expression, stabile EGFP clone",[7]; [15],did not show detectable effects
same,"IFN-γ expression, stabile EGFP clone",[7]; [16],did not show detectable effects
same,"IFN-γ expression, stabile EGFP clone",[7]; [12],dose-dependent inhibition
same,toxicity (LDH-assay),[8],did not find thalidomide to be toxic
"N=C(N)c1ccc(OCCCCCOc2ccc(C(=N)N)cc2)cc1 [pentamidine, Pentamidine isethionate salt]",actin clone fluorescence vs control,[1]; [17],increase
same,actin clone fluorescence vs control,[1]; [18],increase
same,actin clone fluorescence vs control,[1]; [14],not altered
same,IL-2 clone fluorescence vs control,[2]; [19],suppressed
same,IL-2 clone fluorescence vs control,[2]; [20],suppressed
same,IL-4 clone fluorescence vs control,[3]; [19],suppressed
same,IL-4 clone fluorescence vs control,[3]; [20],suppressed
same,IL-10 clone fluorescence vs control,[4]; [17],clearly inhibited
same,IL-10 clone fluorescence vs control,[4]; [18],clearly inhibited
same,IL-10 clone fluorescence vs control,[4]; [19],suppressed
same,IL-10 clone fluorescence vs control,[4]; [20],suppressed
same,IFN-γ clone fluorescence vs control,[5]; [20],suppressed
same,concentration which led to 10% cytotoxicity,[8],30000 ng/mL
"[Cl][Hg][Cl] [mercuric chloride, Mercury (II) chloride]","IL-2 expression, stabile EGFP clone",[6]; [13],exposure effects were not observed
same,"IL-2 expression, stabile EGFP clone",[6]; [21],not affected
same,"IFN-γ expression, stabile EGFP clone",[7]; [13],exposure effects were not observed
same,"IFN-γ expression, stabile EGFP clone",[7]; [12],apparently dose-dependent reduction
"CCCCCCCCCCCCOS(=O)(=O)[O-].[Na+] [SDS, Sodium Dodecyl Sulphate]","IL-2 expression, stabile EGFP clone",[6]; [13],exposure effects were not observed
same,"IL-2 expression, stabile EGFP clone",[6]; [12],apparently dose-dependent reduction
same,"IFN-γ expression, stabile EGFP clone",[7]; [13],exposure effects were not observed
same,"IFN-γ expression, stabile EGFP clone",[7]; [21],not affected
"CCC[CH2][Sn]([CH2]CCC)([CH2]CCC)[O][Sn]([CH2]CCC)([CH2]CCC)[CH2]CCC [TBTO, Bis(tri-n-butyltin) oxide]","IL-2 expression, stabile EGFP clone",[6]; [13],failed to show altered expression
same,"IL-2 expression, stabile EGFP clone",[6]; [15],statistically significant inhibition
same,"IL-2 inhibition, stabile EGFP clone",[6]; [15],10%
same,"IFN-γ expression, stabile EGFP clone",[7]; [13],failed to show altered expression
CO[C@H]1C[C@@H]2CC[C@@H](C)[C@@](O)(O2)C(=O)C(=O)N2CCCC[C@H]2C(=O)O[C@H]([C@H](C)C[C@@H]2CC[C@@H](O)[C@H](OC)C2)CC(=O)[C@H](C)/C=C(\C)[C@@H](O)[C@@H](OC)C(=O)[C@H](C)C[C@H](C)/C=C/C=C/C=C/1C [Rapamycin],concentration which led to 10% cytotoxicity,[8],10000 ng/mL
"O=[N+]([O-])c1ccc(Cl)c([N+](=O)[O-])c1 [DNCB, 1-Chloro-2,4-dinitrobenzene]",actin clone fluorescence vs control,[1]; [18],increased expression
same,actin clone fluorescence vs control,[1]; [14],no statistically significant changes were found
same,IL-2 clone fluorescence vs control,[2]; [18],increased expression
same,IL-2 clone fluorescence vs control,[2]; [14],no statistically significant changes were found
same,IL-4 clone fluorescence vs control,[3]; [18],increased expression
same,IL-4 clone fluorescence vs control,[3]; [14],no statistically significant changes were found
same,IL-10 clone fluorescence vs control,[4]; [14],no statistically significant changes were found
same,IFN-γ clone fluorescence vs control,[5]; [18],increased expression
same,IFN-γ clone fluorescence vs control,[5]; [14],no statistically significant changes were found
same,"IL-2 expression, stabile EGFP clone",[6]; [21],failed to alter expression
same,"IFN-γ expression, stabile EGFP clone",[7]; [11],apparently dose-dependent increase reaching statistical significance at the highest concentration
same,"IFN-γ expression, stabile EGFP clone",[7]; [21],failed to alter expression
same,concentration which led to 10% cytotoxicity,[8],10 µM
"Cc1ccc(N=C=O)cc1N=C=O [TDI, Tolylene 2,4-diisocyanate]",IL-4 clone fluorescence vs control,[3]; [20],statistically significant increase
same,IFN-γ clone fluorescence vs control,[5]; [18],significant induction
same,concentration which led to 10% cytotoxicity,[8],500 µM
"[Cl][Pt-2]([Cl])([Cl])[Cl].[K+].[K+] [K2PtCl4, Potassium tetrachloro-platinate (II)]",NO levels in supernatants,[9],elevated levels
same,GFP fluorescence under microscope,[10],didn′t show noticeable fluorescence
same,mRNA for GFP,"[10]; 100 μM, stimulated for 6 h",upregulation of mRNA for GFP
same,"IL-2 expression, stabile EGFP clone",[6]; [13],exposure effects were not observed
same,"IL-2 expression, stabile EGFP clone",[6]; [12],dose-dependent reduction
same,"IFN-γ expression, stabile EGFP clone",[7]; [13],exposure effects were not observed
same,"IFN-γ expression, stabile EGFP clone",[7]; [12],dose-dependent reduction
"CCOC(=O)c1ccc(N)cc1 [benzocaine, Ethyl-4-Aminobenzoate]",actin clone fluorescence vs control,[1]; [18],significantly increased
same,IL-2 clone fluorescence vs control,[2]; [19],statistically significant inhibitory effect
same,IL-2 clone fluorescence vs control,[2]; [20],statistically significant inhibitory effect
same,IL-10 clone fluorescence vs control,[4]; [19],statistically significant inhibitory effect
same,IL-10 clone fluorescence vs control,[4]; [20],statistically significant inhibitory effect
same,IFN-γ clone fluorescence vs control,[5]; [20],inhibited
same,toxicity (LDH-assay),[8],did not find benzocaine to be toxic
